According to patent US12630540B2, “(4-(6-((2-octahydrocyclopenta[c]pyrrol-5-yl)amino)pyridazin-3-yl)phenyl)(imino)(methyl)-LAMBDA6-sulfanone derivatives and similar compounds as muscarinic acetylcholine receptor M4 antagonists for the treatment of neurodegenerative disorders” (Vanderbilt University, priority 2021, dated 2026):

Molecular target: T1, Human M4 (Homo sapiens, UniProt P08173)
T1 construct: expressed in transfected cells; host or cells: CHO-K1 (ATCC), stably expressing M4 and Gqi5
T1 sequence (P08173 1-479): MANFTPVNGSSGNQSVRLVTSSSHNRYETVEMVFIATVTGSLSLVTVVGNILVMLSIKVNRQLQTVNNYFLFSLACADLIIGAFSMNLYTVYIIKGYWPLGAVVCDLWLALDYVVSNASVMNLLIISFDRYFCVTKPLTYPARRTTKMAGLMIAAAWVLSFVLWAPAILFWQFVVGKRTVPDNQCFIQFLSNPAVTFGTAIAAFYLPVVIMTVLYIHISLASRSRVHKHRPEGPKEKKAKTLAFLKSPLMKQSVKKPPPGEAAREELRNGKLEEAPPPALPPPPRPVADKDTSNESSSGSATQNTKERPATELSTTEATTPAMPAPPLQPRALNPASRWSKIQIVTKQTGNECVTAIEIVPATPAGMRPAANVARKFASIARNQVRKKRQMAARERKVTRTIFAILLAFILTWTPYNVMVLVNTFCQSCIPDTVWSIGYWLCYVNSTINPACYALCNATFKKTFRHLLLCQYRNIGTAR
Assay: mAChR M4 cell-based functional assay (calcium flux, antagonism of EC80 acetylcholine response)
Settings: M4/Gqi5 CHO-K1 cells; for Human M4 Emin: % ACh maximum at 30 μM; for IC50: decrease of the response elicited by an EC80 concentration of acetylcholine
Procedure: Human or rat M4 cDNA, along with the chimeric G protein Gqi5, were transfected into Chinese hamster ovary (CHO-K1) cells purchased from the American Type Culture Collection using Lipofectamine2000. M4/Gqr5/CHO cells were grown in Ham's F-12 medium containing 10% heat-inactivated fetal bovine serum (FBS), 20 mM HEPES, 500 μg/mL G418 sulfate, and 200 μg/mL Hygromycin B.
For high throughput measurement of agonist-evoked increases in intracellular calcium, CHO-K1 cells stably expressing muscarinic receptors were plated in growth medium lacking G418 and hygromycin at 15,000 cells/20 μL/well in Greiner 384-well black-walled, tissue culture (TC)-treated, clear-bottom plates (VWR). Cells were incubated overnight at 37° C. and 5% CO2. The next day, cells were washed using an ELX 405 (BioTek) with assay buffer; the final volume was then aspirated to 20 μL. Next, 20 μL of a 2.3 μM stock of Fluo-4/acetoxymethyl ester (Invitrogen, Carlsbad, CA), prepared as a 2.3 mM stock in DMSO and mixed in a 1:1 ratio with 10% (w/v) Pluronic F-127 and diluted in assay buffer, was added to the wells and the cell plates were incubated for 50 min at 37° C. and 5% CO2. Dye was removed by washing with the ELX 405 and the final volume was aspirated to 20 μL. Compound master plates were formatted in a 10 point concentration-response curve (CRC) format (1:3 dilutions) in 100% DMSO with a starting concentration of 10 or 1 mM using a BRAVO liquid handler (Agilent). Test compound CRCs were then transferred to daughter plates (240 nL) using the Echo acoustic plate reformatter (Labcyte, Sunnyvale, CA) and then diluted into assay buffer (40 μL) to a 2× stock using a Thermo Fisher Combi (Thermo Fisher Scientific, Waltham, MA).
Calcium flux was measured using the Functional Drug Screening System (FDSS) 6000 or 7000 (Hamamatsu Corporation, Tokyo, Japan) as an increase in the fluorescent static ratio. Compounds were applied to cells (20 μL, 2×) using the automated system of the FDSS at 2 seconds into the protocol and the data were collected at 1 Hz. At 143 s, 10 μL of an EC20 concentration of the muscarinic receptor agonist acetylcholine was added (5×), followed by the addition of 12 μL of an EC80 concentration of acetylcholine at the 268 s time point (5×). Agonist activity was analyzed as a concentration-dependent increase in calcium mobilization upon compound addition. Positive allosteric modulator activity was analyzed as a concentration-dependent increase in the EC20 acetylcholine response. Antagonist activity was analyzed as a concentration-dependent decrease in the EC80 acetylcholine response; for the purposes of the tables herein, an IC50 (inhibitory concentration 50) was calculated as a concentration-dependent decrease of the response elicited by an EC80 concentration of acetylcholine. Concentration-response curves were generated using a four-parameter logistical equation in XLFit curve fitting software (IDBS, Bridgewater, NJ) for Excel (Microsoft, Redmond, WA) or Prism (GraphPad Software, Inc., San Diego, CA) or the Dotmatics software platform (Dotmatics, Bishop's Stortford, UK).
Compounds were synthesized as described above. Activity (IC50 and Emin) was determined in the mAChR M4 cell-based functional assay as described above and the data are shown in Table 2.

Compound | Human M4 Emin [%] | IC50 [nM]
[2H]C([2H])(C1CCOCC1)N1C[C@H]2C[C@H](Nc3ccc(-c4ccc(S(C)(=N)=O)cc4)nn3)C[C@H]2C1 (stereo partly drawn) [compound 2, imino(methyl)(4-(6-(((3aR,5s,6aS)-2-((tetrahydro-2H-pyran-4-yl)methyl-d2)octahydrocyclopenta[c]pyrrol-5-yl)amino)pyridazin-3-yl)phenyl)-λ^6-sulfanone] | 2 | 39.6
[2H]C([2H])(C1CCOCC1)N1C[C@H]2C[C@H](Nc3ccc(-c4ccc(S(C)(=N)=O)cc4F)nn3)C[C@H]2C1 (stereo partly drawn) [compound 5, (3-fluoro-4-(6-(((3aR,5s,6aS)-2-((tetrahydro-2H-pyran-4-yl)methyl-d2)octahydrocyclopenta[c]pyrrol-5-yl)amino)pyridazin-3-yl)phenyl)(imino)(methyl)-λ^6-sulfanone] | 3 | 75.4
[2H]C([2H])(C1CCOCC1)N1C[C@H]2C[C@H](Nc3ccc(-c4ccc(S(C)(=N)=O)c(F)c4)nn3)C[C@H]2C1 (stereo partly drawn) [compound 6, (2-fluoro-4-(6-(((3aR,5s,6aS)-2-((tetrahydro-2H-pyran-4-yl)methyl-d2)octahydrocyclopenta[c]pyrrol-5-yl)amino)pyridazin-3-yl)phenyl)(imino)(methyl)-λ^6-sulfanone] | 3 | 188
CS(=N)(=O)c1cc(F)c(-c2ccc(N[C@H]3C[C@@H]4CN(Cc5ccccn5)C[C@@H]4C3)nn2)cc1F (stereo partly drawn) [compound 8, (2,5-difluoro-4-(6-(((3aR,5s,6aS)-2-(pyridin-2-ylmethyl)octahydrocyclopenta[c]pyrrol-5-yl)amino)pyridazin-3-yl)phenyl)(imino)(methyl)-λ^6-sulfanone] | 7 | 560
[2H]C([2H])(C1CC(C)(C)OC(C)(C)C1)N1C[C@H]2C[C@H](Nc3ccc(-c4cc(F)c(S(C)(=N)=O)cc4F)nn3)C[C@H]2C1 (stereo partly drawn) [compound 11, (2,5-difluoro-4-(6-(((3aR,5s,6aS)-2-((2,2,6,6-tetramethyltetrahydro-2H-pyran-4-yl)methyl-d2)octahydrocyclopenta[c]pyrrol-5-yl)amino)pyridazin-3-yl)phenyl)(imino)(methyl)-λ^6-sulfanone] | 3 | 86.2
[2H]C([2H])(C1CCOCC1)N1C[C@H]2C[C@H](Nc3ccc(-c4ccc(S(C)(=O)=NC(F)(F)F)cc4)nn3)C[C@H]2C1 (stereo partly drawn) [compound 12, methyl(4-(6-(((3aR,5s,6aS)-2-((tetrahydro-2H-pyran-4-yl)methyl-d2)octahydrocyclopenta[c]pyrrol-5-yl)amino)pyridazin-3-yl)phenyl)((trifluoromethyl)imino)-λ^6-sulfanone] | 2 | 43.4
[2H]C([2H])(C1CCOCC1)N1C[C@H]2C[C@H](Nc3ccc(-c4ccc(S(C)(=N)=O)c(C(F)(F)F)c4)nn3)C[C@H]2C1 (stereo partly drawn) [compound 13, imino(methyl)(4-(6-(((3aR,5s,6aS)-2-((tetrahydro-2H-pyran-4-yl)methyl-d2)octahydrocyclopenta[c]pyrrol-5-yl)amino)pyridazin-3-yl)-2-(trifluoromethyl)phenyl)-λ^6-sulfanone] | 3 | 8.6

Next, values leading:

Human M4 Emin [%] | IC50 [nM] | Compound
4 | 13.4 | [2H]C([2H])(C1CCOCC1)N1C[C@H]2C[C@H](Nc3ccc(-c4cc(F)c(S(C)(=N)=O)cc4F)nn3)C[C@H]2C1 (stereo partly drawn) [compound 1, (2,5-difluoro-4-(6-(((3aR,5s,6aS)-2-((tetrahydro-2H-pyran-4-yl)methyl-d2)octahydrocyclopenta[c]pyrrol-5-yl)amino)pyridazin-3-yl)phenyl)(imino)(methyl)-λ^6-sulfanone]
3 | 18.5 | [2H]C([2H])([2H])N=S(C)(=O)c1cc(F)c(-c2ccc(N[C@H]3C[C@@H]4CN(C([2H])([2H])C5CCOCC5)C[C@@H]4C3)nn2)cc1F (stereo partly drawn) [compound 3, (2,5-difluoro-4-(6-(((3aR,5s,6aS)-2-((tetrahydro-2H-pyran-4-yl)methyl-d2)octahydrocyclopenta[c]pyrrol-5-yl)amino)pyridazin-3-yl)phenyl)(methyl)((methyl-d3)imino)-λ^6-sulfanone]
6 | 584 | [2H]C([2H])(C1CCOCC1)N1C[C@H]2C[C@H](Nc3ccc(-c4cc(F)c(S(C)(=O)=NC(C)=O)cc4F)nn3)C[C@H]2C1 (stereo partly drawn) [compound 4, N-((2,5-difluoro-4-(6-(((3aR,5s,6aS)-2-((tetrahydro-2H-pyran-4-yl)methyl-d2)octahydrocyclopenta[c]pyrrol-5-yl)amino)pyridazin-3-yl)phenyl)(methyl)(oxo)-λ^6-sulfaneylidene)acetamide]
3 | 40 | CS(=N)(=O)c1cc(F)c(-c2ccc(N[C@H]3C[C@@H]4CN(CC5CCOCC5)C[C@@H]4C3)nn2)cc1F (stereo partly drawn) [compound 7, (2,5-difluoro-4-(6-(((3aR,5s,6aS)-2-((tetrahydro-2H-pyran-4-yl)methyl)octahydrocyclopenta[c]pyrrol-5-yl)amino)pyridazin-3-yl)phenyl)(imino)(methyl)-λ^6-sulfanone]
3 | 18.4 | CS(=N)(=O)c1cc(F)c(-c2ccc(N[C@H]3C[C@@H]4CN(CCC5CCOCC5)C[C@@H]4C3)nn2)cc1F (stereo partly drawn) [compound 9, (2,5-difluoro-4-(6-(((3aR,5s,6aS)-2-(2-(tetrahydro-2H-pyran-4-yl)ethyl)octahydrocyclopenta[c]pyrrol-5-yl)amino)pyridazin-3-yl)phenyl)(imino)(methyl)-λ^6-sulfanone]
2 | 1.8 | CS(=N)(=O)c1cc(F)c(-c2ccc(N[C@H]3C[C@@H]4CN(CC5CCCCC5)C[C@@H]4C3)nn2)cc1F (stereo partly drawn) [compound 10, (4-(6-(((3aR,5s,6aS)-2-(cyclohexylmethyl)octahydrocyclopenta[c]pyrrol-5-yl)amino)pyridazin-3-yl)-2,5-difluorophenyl)(imino)(methyl)-λ^6-sulfanone]
